The text below walks through data of PMC4775937, “Combination Effects of Antimicrobial Peptides” (Antimicrobial Agents and Chemotherapy, 2016).

Converted amounts (≈) assume the structure as drawn. Where two headings read alike, the source gives them in different places. Ends that are not written are not given here.

For assay [1], the system named is Escherichia coli MG1655. The format is cell-based. The procedure: (§1) Escherichia coli MG1655 was grown in Luria-Bertani (LB) broth at 37°C with aeration at 220 rpm in 50-ml tubes. Two hundred microliters of overnight culture was resuspended into 15 ml fresh LB broth, cultured under the same conditions for an additional 2 h, and then used for subsequent assays. Mueller-Hinton (MH) broth was used for the assay of MICs and time-killing curves.
According to a standard protocol ([35]), stock solutions of AMPs were diluted in MH broth and then diluted in 96-well plates with a 2-fold gradient, that is, from 0.25 μg/ml to 128 μg/ml. All the gradients of antibiotics were from 0.02 μg/ml to 50 μg/ml, except that the gradient of ciprofloxacin was from 0.002 μg/ml to 1 μg/ml. Approximately 5 × 10^5 log-phase bacteria were added to each well. A positive control containing MH broth and bacteria and a negative control containing only MH broth were included in each plate, and plates were incubated at 37°C overnight.

In assay [2] the test system is Escherichia coli MG1655. Description: Killing curves fitted to the Hill function (pharmacodynamic parameters). The note with it: brackets = 95% confidence interval. The format is cell-based. The method, then: as §1
Thus, Loewe additivity would result in a MIC of any one combination equal to the MIC of the individual drugs (see equations 5 and 6). Thus, 21 two-AMP combinations and 20 three-AMP combinations were generated. An AMP(s) was diluted, starting with 100× MIC, in a 96-well plate to form a 2-fold gradient of concentrations, and 2 × 10^6 log-phase bacteria were added to a total volume of 100 μl. The plates were incubated at 37°C. Killing was assessed within 1 h, as killing by AMPs is very fast ([36], [37]). Ten microliters of a mixture of AMPs and bacteria was taken out every 20 min and then immediately diluted in saline solution and plated on the solid agar plates. These solid agar plates were transferred into a 37°C incubator and cultured overnight for CFU determination. The limit of detection in our system is 100 CFUs.
To model the killing curve, the relationship between the concentration of AMP(s) and the killing and/or growth rate of exposed bacteria, we used a Hill function ([26]): (1) μ(a)=Emax (a/EC50)^κ/1+(a/EC50)^κ Here, μ(a) is the killing rate at a given concentration of AMP(s); a is a given concentration; Emax is the maximal killing rate of the given AMP(s). κ is the Hill coefficient. We then defined growth rate ψ(a) as follows: (2) ψ(a)=ψmax −μ(a) Here, ψmax is the maximal growth rate of bacteria without AMP(s). The maximum effect of AMP(s) is defined by (3) Emax =ψmax −ψmin Thus, the effect of AMP(s) in a given concentration, μ(a), can be rewritten as (4) μ(a)=(ψmax −ψmin )(a/zMIC)^κ/(a/zMIC)^κ−ψmin /ψmax zMIC is the estimated MIC. Growth rate and killing rate of bacteria are estimated from the time-kill curves as the change of CFU over time by using generalized linear regression. […]

The mark [3] stands for this setting: E. coli MG1655, MH broth, 96-well plates, 2-fold gradient 0.25 to 128 μg/ml, approx. 5 × 10^5 log-phase bacteria per well, 37°C overnight.

As a reminder, the MIC is the smallest concentration in the dilution series that meets the test's criterion for growth inhibition. Consider `CC[C@H](C)[C@H](N)C(=O)N[C@@H](CC(C)C)C(=O)N1CCC[C@H]1C(=O)N[C@@H](Cc1c[nH]c2ccccc12)C(=O)N[C@@H](CCCCN)C(=O)N[C@@H](Cc1c[nH]c2ccccc12)C(=O)N1CCC[C@H]1C(=O)N[C@@H](Cc1c[nH]c2ccccc12)C(=O)N[C@@H](Cc1c[nH]c2ccccc12)C(=O)N1CCC[C@H]1C(=O)N[C@@H](Cc1c[nH]c2ccccc12)C(=O)N[C@@H](CCCNC(=N)N)C(=O)N[C@@H](CCCNC(=N)N)C(N)=O` [Ind, Indolicidin], for which the MIC with Escherichia coli MG1655 [1] (setting [3]) was 4 µg/mL (≈ 2.1 µM).
In the assay on Escherichia coli MG1655 [1] (MG1655, 2 h), FKRIVQRIKDFLR [LL, LL 17-29] displayed an MIC of 16 µg/mL.
Take “GIGKFLKKAKKFGKAFVKILKK-NH2 [Pex, pexiganan]”: the MIC with Escherichia coli MG1655 [1] (setting [3]) came out at 2 µg/mL.
GNNRPVYIPQPRPPHPRL [Api, Apidaecin IB] came in with an MIC against Escherichia coli MG1655 [1] (setting [3]) of 4 µg/mL.
In the case of “KWKLFKKIEKVGQNIRDGIIKAGPAVAVVGQATQIAK-NH2 [Cec, Cecropin A]”, the “κ (lower,upper)” value in the assay on Escherichia coli MG1655 [2] (Hill coefficient (steepness of pharmacodynamic curve), Hill function fit (MCMC) of time-kill data, E. coli MG1655, 37°C, within 1 h) is on record as 6.02(5.17,6.84). The “zMIC (lower,upper)” value in the assay on Escherichia coli MG1655 [2] (estimated MIC from Hill function fit (MCMC) of time-kill data, 2-fold gradient from 100× MIC, 2 × 10^6 log-phase bacteria in 100 μl, 37°C, CFU every 20 min within 1 h, combinations 1:1 or 1:1:1 by volume) is recorded as 0.32(0.28,0.37) times of original MIC. The “ψmin (lower,upper)” value in the assay on Escherichia coli MG1655 [2] (minimal growth rate of bacteria, Hill function fit (MCMC) of time-kill data, E. coli MG1655, 37°C, within 1 h) is -5.83(-5.89,-5.77). Besides, the MIC against Escherichia coli MG1655 [1] (setting [3]) was determined as 1 µg/mL.
